# Measurements as given in ChEMBL document CHEMBL2074527, “Evidence for the absolute conformational specificity of the intestinal H+/peptide symporter, PEPT1” (J Biol Chem, 1998).
# pKi: −log10 of the molar value.
# Biological target: T1, Solute carrier family 15 member 1 (Homo sapiens, UniProt P46059)
# T1 sequence (P46059 whole entry): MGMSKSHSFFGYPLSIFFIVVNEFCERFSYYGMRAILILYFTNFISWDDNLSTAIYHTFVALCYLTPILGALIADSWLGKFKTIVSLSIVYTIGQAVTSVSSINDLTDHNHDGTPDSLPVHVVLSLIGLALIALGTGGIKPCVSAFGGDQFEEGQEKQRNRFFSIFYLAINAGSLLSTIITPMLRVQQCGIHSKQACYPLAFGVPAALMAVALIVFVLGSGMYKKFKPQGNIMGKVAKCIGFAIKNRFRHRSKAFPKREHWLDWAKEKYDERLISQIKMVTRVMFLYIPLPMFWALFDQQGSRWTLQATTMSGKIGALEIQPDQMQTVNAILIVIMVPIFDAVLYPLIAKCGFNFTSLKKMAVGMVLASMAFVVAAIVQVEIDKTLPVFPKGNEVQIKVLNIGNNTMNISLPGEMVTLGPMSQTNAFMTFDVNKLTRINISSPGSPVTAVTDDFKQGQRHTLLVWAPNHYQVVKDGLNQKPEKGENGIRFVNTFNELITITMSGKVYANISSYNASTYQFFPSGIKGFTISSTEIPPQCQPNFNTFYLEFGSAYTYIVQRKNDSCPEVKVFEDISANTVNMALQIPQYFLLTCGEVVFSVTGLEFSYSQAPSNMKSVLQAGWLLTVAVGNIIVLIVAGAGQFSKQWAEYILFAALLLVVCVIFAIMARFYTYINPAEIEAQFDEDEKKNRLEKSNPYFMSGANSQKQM
# Test: TP_TRANSPORTER: inhibition of Gly-Sar uptake, 96% trans conformation in Caco-2 cells
# Type: functional, cell-based
smiles,measurement,value
CC(N)C(=S)N1CCCC1C(=O)O (stereo unspecified),pKi,3.52
